Measured values as given in ChEMBL document CHEMBL1201862, “PubChem BioAssay data set” (2004).
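Compound exposure: 48 hours, 5 concentrations, 96-well plates. Here, GI50 denotes the concentration required for 50% inhibition of growth.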 Activity calls are given as the source filed them. No stated cut-off is given here; in the data, active = GI50 up to about 1.1 µM and inactive = higher.

Key:
Experiment in all cases: DTP human tumour cell line panel, 48 h
NCI/ADR-RES = test system: NCI/ADR-RES
M14 = test system: M14
NCI-H522 = test system: NCI-H522
HCC 2998 = test system: HCC 2998
LOX IMVI = test system: LOX IMVI
T47D = test system: T47D
RXF 393 = test system: RXF 393
CAKI-1 = test system: CAKI-1
HCT-116 = test system: HCT-116
A498 = test system: A498
NCI-H226 = test system: NCI-H226
786-0 = test system: 786-0
SR = test system: SR
NCI-H460 = test system: NCI-H460
HL-60 = test system: HL-60
SF-295 = test system: SF-295
SNB-75 = test system: SNB-75
KM12 = test system: KM12
HOP-92 = test system: HOP-92
PC-3 = test system: PC-3

| Compound | GI50 (NCI/ADR-RES) | GI50 (M14) | GI50 (NCI-H522) | GI50 (HCC 2998) | GI50 (LOX IMVI) | GI50 (T47D) | GI50 (RXF 393) | GI50 (CAKI-1) | GI50 (HCT-116) | GI50 (A498) | GI50 (NCI-H226) | GI50 (786-0) | GI50 (SR) | GI50 (NCI-H460) | GI50 (HL-60) | GI50 (SF-295) | GI50 (SNB-75) | GI50 (KM12) | GI50 (HOP-92) | GI50 (PC-3) |
| --- | --- | --- | --- | --- | --- | --- | --- | --- | --- | --- | --- | --- | --- | --- | --- | --- | --- | --- | --- | --- |
| CCOP1(=O)C=C(Sc2ccc([N+](=O)[O-])cc2[N+](=O)[O-])C(C)(C)O1 (stereo not given) | 25.3 µM (inactive) | 11.9 µM (inactive) | 3.64 µM (inactive) | 18.6 µM (inactive) | 3.83 µM (inactive) | 14.6 µM (inactive) | 17.9 µM (inactive) | 11.7 µM (inactive) | 5.42 µM (inactive) | 25.6 µM (inactive) | 25.5 µM (inactive) | 8.81 µM (inactive) | 3.59 µM (inactive) | 21 µM (inactive) | 3.41 µM (inactive) | 17.9 µM (inactive) | 19.8 µM (inactive) | 16.5 µM (inactive) | 7.26 µM (inactive) | 11.9 µM (inactive) |
| COc1cccc2c(Nc3ccc(S(=O)(=O)NC(C)=O)cc3)c3ccc([N+](=O)[O-])cc3nc12 | > 57.1 µM (inactive) | 53.1 µM (inactive) | 17.5 µM (inactive) | 44.9 µM (inactive) | 37.2 µM (inactive) | 94.4 µM (inactive) | 97.9 µM (inactive) | 65.6 µM (inactive) | 30.5 µM (inactive) | 56.8 µM (inactive) | 29.2 µM (inactive) | 33.3 µM (inactive) | 4.15 µM (inactive) | 32.3 µM (inactive) | 36 µM (inactive) | > 88.3 µM (inactive) | 8.28 µM (inactive) | 11 µM (inactive) | 26.2 µM (inactive) | 20.4 µM (inactive) |
| N#Cc1c(-c2ccc(Cl)cc2)cc(-c2ccc(Nc3ccnc4cc(Cl)ccc34)cc2)[nH]c1=O | > 100 µM (inactive) | > 100 µM (inactive) | > 38.6 µM (inactive) | > 100 µM (inactive) | 31.6 µM (inactive) | > 100 µM (inactive) | 30.4 µM (inactive) | > 100 µM (inactive) | 44.2 µM (inactive) | 50.4 µM (inactive) | > 100 µM (inactive) | 17.6 µM (inactive) | > 52.5 µM (inactive) | > 100 µM (inactive) | > 100 µM (inactive) | 16.6 µM (inactive) | 14.6 µM (inactive) | > 61 µM (inactive) | 18.1 µM (inactive) | > 100 µM (inactive) |
| COc1ccc2[nH]c3c(C)c4ccnc(NCCCN(C)CCCN)c4c(C)c3c2c1 | 0.394 µM (active) | 0.171 µM (active) | 0.0189 µM (active) | 0.159 µM (active) | 0.198 µM (active) | 0.213 µM (active) | 0.0622 µM (active) | 0.156 µM (active) | 0.107 µM (active) | 0.217 µM (active) | 0.0458 µM (active) | 0.0596 µM (active) | 0.186 µM (active) | 0.091 µM (active) | 0.12 µM (active) | 0.214 µM (active) | 0.0257 µM (active) | 0.258 µM (active) | 0.13 µM (active) | 0.259 µM (active) |
| Oc1cc(Br)cc2cc(Br)cnc12 | 2.72 µM (inactive) | 2.4 µM (inactive) | 2.3 µM (inactive) | 17.1 µM (inactive) | 0.661 µM (active) | 2.8 µM (inactive) | 1.6 µM (inactive) | 8.55 µM (inactive) | 2.11 µM (inactive) | 3.4 µM (inactive) | 15.3 µM (inactive) | 13.8 µM (inactive) | 1.26 µM (inactive) | 1.3 µM (inactive) | 0.22 µM (active) | 2.64 µM (inactive) | 3.47 µM (inactive) | 5.38 µM (inactive) | 13.7 µM (inactive) | 3.71 µM (inactive) |
| CC(=O)O[C@H]1[C@@H](OC2CCCC2(c2ccccc2)c2ccccc2)O[N+]([O-])=C[C@@]12COCc1cc3c(cc12)OCO3 (stereo not given in full) | 3.52 µM (inactive) | 11.2 µM (inactive) | 1.98 µM (inactive) | 3.25 µM (inactive) | 2.72 µM (inactive) | 4.23 µM (inactive) | 5.74 µM (inactive) | 4.32 µM (inactive) | > 21.2 µM (inactive) | 1.99 µM (inactive) | 4.79 µM (inactive) | 6.58 µM (inactive) | 2.32 µM (inactive) | 7.06 µM (inactive) | 3.24 µM (inactive) | 5.25 µM (inactive) | 4.11 µM (inactive) | 4.14 µM (inactive) | 5.13 µM (inactive) | 4.2 µM (inactive) |
| O=C(c1ccccc1)c1ccc2nc3n(c2c1)C(c1c(F)cccc1F)SC3 (stereo not given) | 2.99 µM (inactive) | 3.46 µM (inactive) | 2.01 µM (inactive) | 5.25 µM (inactive) | 6.11 µM (inactive) | 4.49 µM (inactive) | 13.2 µM (inactive) | 5.13 µM (inactive) | 3.26 µM (inactive) | 3.7 µM (inactive) | 30.6 µM (inactive) | 4.2 µM (inactive) | 0.847 µM (active) | 3.98 µM (inactive) | 2.03 µM (inactive) | 3.2 µM (inactive) | 4.17 µM (inactive) | 2.82 µM (inactive) | 10.9 µM (inactive) | 6.89 µM (inactive) |
| Nc1ccn(C=C=CCO)c(=O)n1 | > 100 µM (inactive) | > 100 µM (inactive) | > 77.3 µM (inactive) | > 78.5 µM (inactive) | > 100 µM (inactive) | > 93.8 µM (inactive) | > 100 µM (inactive) | > 100 µM (inactive) | > 100 µM (inactive) | > 100 µM (inactive) | > 100 µM (inactive) | > 100 µM (inactive) | 190 µM (inactive) | > 100 µM (inactive) | 48.9 µM (inactive) | > 100 µM (inactive) | > 93.8 µM (inactive) | > 100 µM (inactive) | > 66.4 µM (inactive) | > 100 µM (inactive) |
